# According to ChEMBL document CHEMBL2448688, “Selection and optimization of hits from a high-throughput phenotypic screen against Trypanosoma cruzi. Exported from HEOS 25-Oct-2013. See also related datasets CHEMBL3137440 and CHEMBL3137386”:
# “And” between values parts separate entries of the source, which are not always exact repeats. Equal values may be shown once.
# What was measured:
# [1] = DNDI: Cytotoxicity in vitro, against rat skeletal myoblast (L-6) cells; conditions: L-6 cells (skeletal myoblasts), IC50
# Trypanosoma cruzi [2] = experiment: (§1) DNDI: Chagas in Vitro; format: functional, organism-based, Tulahuen C4 (LacZ)
# Trypanosoma cruzi [3] = experiment: as §1; format: functional, Tulahuen C4 (LacZ)
# in vitro [4] = conditions: human, microsomes
# Cytochrome P450 3A4 = Cytochrome P450 3A4 (Homo sapiens, UniProt P08684); experiment: DNDI: Human CYP3A4 inhibition determined using 6b-hydroxylation of testosterone
# in vitro [5] = conditions: human, microsomes, t (1 / 2)
# [6] = DNDI: Solubility in 0.01M HCl at pH 2 determined by nephelometry; conditions: 0.01M HCl, pH 2, Kinetic
# [7] = DNDI: Solubility in phosphate buffer at pH 6.5 determined by nephelometry; conditions: phosphate buffer, pH 6.5, Kinetic
# [8] = test system: Trypanosoma brucei rhodesiense; experiment: DNDI: HAT in Vitro; format: functional, organism-based, ATCC 30027; conditions: Trypanosoma brucei, ATCC 30027
# [9] = DNDI: Lipophilicity (gLogD) at pH 3; conditions: buffer, pH 3, logD
# [10] = DNDI: Lipophilicity (gLogD) at pH 7.4; conditions: buffer, pH 7.4, logD
# in vitro [11] = conditions: human, microsomes, EH
# [12] = Trypanosoma cruzi, Tulahuen C4 (LacZ)
# Cytochrome P450 3A4, sequence (P08684 whole entry): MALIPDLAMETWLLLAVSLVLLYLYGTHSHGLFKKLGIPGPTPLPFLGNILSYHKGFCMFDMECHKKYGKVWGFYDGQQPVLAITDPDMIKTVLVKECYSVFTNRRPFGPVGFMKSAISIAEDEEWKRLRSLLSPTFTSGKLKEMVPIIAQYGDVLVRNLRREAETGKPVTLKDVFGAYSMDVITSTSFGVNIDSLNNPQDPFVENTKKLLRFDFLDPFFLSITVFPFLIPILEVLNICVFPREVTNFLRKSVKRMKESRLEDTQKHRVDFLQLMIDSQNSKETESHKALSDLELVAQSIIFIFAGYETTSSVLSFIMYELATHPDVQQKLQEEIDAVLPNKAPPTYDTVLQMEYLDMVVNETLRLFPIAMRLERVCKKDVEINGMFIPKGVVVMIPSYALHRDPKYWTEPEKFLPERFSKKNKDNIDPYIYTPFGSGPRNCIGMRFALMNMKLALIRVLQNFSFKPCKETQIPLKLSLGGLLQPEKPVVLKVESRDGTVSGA
Structure (SMILES),IC50 (Trypanosoma cruzi [2]; [12]) [nM],IC90 (Trypanosoma cruzi [3]; [12]) [nM],microsomal CLint (in vitro [4]) [µL/min/mg],IC50 (Cytochrome P450 3A4) [nM],half-life (in vitro [5]) [min],solubility kinetic [6] [µg/mL],solubility kinetic [7] [µg/mL],IC50 [8] [nM],chromatographic logD [9],chromatographic logD [10],hepatic extraction ratio (in vitro [11]),IC50 (Trypanosoma cruzi [2]),IC90 (Trypanosoma cruzi [3]),IC50 [1] [nM]
CO/N=C(\C)c1ccc(-n2ccnc2)c(NC(=O)c2ccc(-c3ccccn3)cc2)c1,> 1000,> 1000,,,,,,,,,,,,> 100000
CCN(Cc1cccnc1)c1cccc(-c2nc3ccccc3s2)c1,,,159,1000,11,> 100,< 1.6,> 10000,4.1,4.9,0.86,,,41900
O=C(C1CC1)N(Cc1cccnc1)c1cccc(-c2nc3ccccc3s2)c1,29,> 100,380,,5,> 100,,> 10000,3.4,4,,,,60600
CN(C)S(=O)(=O)c1ccc(-n2ccnc2)c(NC(=O)c2cnc(-c3ccccc3)s2)c1,13,87,79,10000,22,> 100,,> 10000,2.4,3,0.75,,,> 100000
CCS(=O)(=O)N(Cc1cccnc1)c1cccc(-c2nc3ccccc3s2)c1,23,58.5,346,< 250,5,> 100,,> 10000,3.2,3.6,0.93,,,> 100000
CO/N=C(\C)c1ccc(-n2ccnc2)c(NC(=O)c2ccc(-c3cccs3)nc2)c1,2.7,9.5,102,1400,17,> 100,,,2.4,3.2,0.8,,,> 100000
O=C(C1CC1)N(Cc1cccnc1)c1cncc(-c2nc3ccccc3s2)c1,12.9,34,,,,,,,,,,,,
CCS(=O)(=O)N(Cc1cccnc1)c1cncc(-c2nc3ccccc3s2)c1,13.5,355,559,1040,3.1,> 82.1,13,,1.89,3.19,0.965,,,> 100000
CO/N=C(\C)c1ccc(-n2ccnc2)c(NC(=O)c2cc(-c3ccccc3)cs2)c1,,,,,,,,,,,,,,> 100000
CCN(Cc1cccnc1)c1cc(F)cc(-c2nc3ccccc3s2)c1,47,98,179,775,9.7,57.2,< 0.36,,3.75,> 4.5,0.898,,,57700
O=C(C1CC1)N(Cc1cccnc1)c1cc(F)cc(-c2nc3ccccc3s2)c1,20,62.5,1320,,1.3,66.9,6.65,,3.04,4.49,,,,76900
CO/N=C(\C)c1ccc(-n2ccnc2)c(NC(=O)c2sc(-c3ccccc3)nc2C)c1,67.5,204,18,,97,> 100,,,2.3,3.5,,,,> 100000
CS(=O)(=O)N(Cc1cccnc1)c1ccc(-c2nc3ccccc3s2)cc1,40.5,91,,,,,,,,,,,,> 100000
CCN(Cc1cccnc1)c1ccc(-c2nc3ccccc3s2)cc1,351,632,,,,,,,,,,,,54500
CCN(Cc1cccnc1)c1ccc(-c2ccc(F)cc2)cc1F,17,82.5,80.5,1000,21.5,59.5,< 0.32,,3.49,> 4.5,0.799,,,56300
CC(=O)N(Cc1cccnc1)c1ccc(-c2ccc(F)cc2)cc1F,53.5,184,,,,,,,,,,,,
CS(=O)(=O)N(Cc1cccnc1)c1ccc(-c2ccc(F)cc2)cc1F,2,,218,612,7.9,> 74.9,8.62,,1.89,3.18,0.916,1 nM,14.6 nM and 6 nM,
NCC(=O)N(Cc1cccnc1)c1ccc(-c2nc3ccccc3s2)cc1,17,,,,,,,,,,,,64 nM and 625 nM,
CC(=O)N(Cc1c[nH]cn1)c1ccc(-c2ccc(F)cc2)cc1F,,,,,,,,,,,,,,69900

# More lines, main results first:
IC50 (Trypanosoma cruzi [2]; [12]) [nM],IC90 (Trypanosoma cruzi [3]; [12]) [nM],microsomal CLint (in vitro [4]) [µL/min/mg],IC50 (Cytochrome P450 3A4) [nM],half-life (in vitro [5]) [min],solubility kinetic [6] [µg/mL],solubility kinetic [7] [µg/mL],IC50 [8] [nM],chromatographic logD [9],chromatographic logD [10],hepatic extraction ratio (in vitro [11]),IC50 (Trypanosoma cruzi [2]),IC90 (Trypanosoma cruzi [3]),Structure (SMILES),IC50 [1] [nM]
306,,,,,,,,,,,,,O=C(NCCc1c[nH]cn1)c1ccc(-c2ccccc2)cc1,> 100000
59.7,> 100,,,,,,,,,,,,CS(=O)(=O)c1ccc(-n2ccnc2)c(NC(=O)c2cnc(-c3ccccc3)s2)c1,> 100000
186,> 1000,16.5,3280,105,64.3,48.2,> 10000,,,,,,O=C(NCCc1cnc[nH]1)c1ccc2cc(Br)ccc2c1,59700
,,< 7,16000,> 250,> 100,,> 10000,1.3,2.1,< 0.23,,,O=C(NCCc1cnc[nH]1)c1cnc(-c2ccccc2)cn1,
4.9,10,,,,,,,,,,3.2 nM and 3.8 nM,,O=C(Nc1ccccc1-n1ccnc1)c1cnc(-c2ccccc2)s1,
1.98,15,109,,16,> 100,,,1.8,3,,,,Cc1ccc(-n2ccnc2)c(NC(=O)c2cnc(-c3ccccc3)s2)c1,86600
51,,138,576,12.4,> 70.5,3.1,,1.98,4.67,0.874,48 nM,51 nM and 110 nM,CCN(Cc1cnc[nH]1)c1cc(F)cc(-c2nc3ccccc3s2)c1,
486,941,,,,,,,,,,534 nM,> 1000 nM,CC(=O)N(Cc1cnc[nH]1)c1cc(F)cc(-c2nc3ccccc3s2)c1,> 100000
< 0.14,,157,,11,> 100,< 1.6,,2.8,3.9,,0.22 nM and 0.2 nM and 0.19 nM,,CC(C)Cc1ccc(-n2ccnc2)c(NC(=O)c2cnc(-c3ccccc3)s2)c1,
